Molecules are shown by their SMILES. Read-outs that look alike come from different tables or passages of the source.

In this experiment the target is T1, Cbl-B (Homo sapiens, UniProt Q13191).
T1 construct: MSD-Based Assay for Degradation of Cbl-B in THP-1 Cells; endogenous in cells; host or cells: THP-1 (title) / Jurkat (protocol text)
Kind of experiment: MSD-based assay for degradation of Cbl-B in THP-1 cells. In kind it is cell-based. The procedure, abridged: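 Reported Dmax bins are A >70%, B 50–70%, C 30–50% and D <30%, from an electrochemiluminescence (MSD) sandwich assay of Cbl-B in cell lysates. THP-1 cells were exposed to compounds for 24 hours before lysis.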

Where [1] appears, read: Cbl-B degradation, Jurkat cells seeded (heading: THP-1 cells), 24 hours incubation, MSD readout.
The mark [2] stands for this setting: Cbl-B degradation, Jurkat cells seeded (heading: THP-1 cells), 24 hours incubation, MSD readout, read-out: Dmax.

T1 sequence (Q13191 whole entry): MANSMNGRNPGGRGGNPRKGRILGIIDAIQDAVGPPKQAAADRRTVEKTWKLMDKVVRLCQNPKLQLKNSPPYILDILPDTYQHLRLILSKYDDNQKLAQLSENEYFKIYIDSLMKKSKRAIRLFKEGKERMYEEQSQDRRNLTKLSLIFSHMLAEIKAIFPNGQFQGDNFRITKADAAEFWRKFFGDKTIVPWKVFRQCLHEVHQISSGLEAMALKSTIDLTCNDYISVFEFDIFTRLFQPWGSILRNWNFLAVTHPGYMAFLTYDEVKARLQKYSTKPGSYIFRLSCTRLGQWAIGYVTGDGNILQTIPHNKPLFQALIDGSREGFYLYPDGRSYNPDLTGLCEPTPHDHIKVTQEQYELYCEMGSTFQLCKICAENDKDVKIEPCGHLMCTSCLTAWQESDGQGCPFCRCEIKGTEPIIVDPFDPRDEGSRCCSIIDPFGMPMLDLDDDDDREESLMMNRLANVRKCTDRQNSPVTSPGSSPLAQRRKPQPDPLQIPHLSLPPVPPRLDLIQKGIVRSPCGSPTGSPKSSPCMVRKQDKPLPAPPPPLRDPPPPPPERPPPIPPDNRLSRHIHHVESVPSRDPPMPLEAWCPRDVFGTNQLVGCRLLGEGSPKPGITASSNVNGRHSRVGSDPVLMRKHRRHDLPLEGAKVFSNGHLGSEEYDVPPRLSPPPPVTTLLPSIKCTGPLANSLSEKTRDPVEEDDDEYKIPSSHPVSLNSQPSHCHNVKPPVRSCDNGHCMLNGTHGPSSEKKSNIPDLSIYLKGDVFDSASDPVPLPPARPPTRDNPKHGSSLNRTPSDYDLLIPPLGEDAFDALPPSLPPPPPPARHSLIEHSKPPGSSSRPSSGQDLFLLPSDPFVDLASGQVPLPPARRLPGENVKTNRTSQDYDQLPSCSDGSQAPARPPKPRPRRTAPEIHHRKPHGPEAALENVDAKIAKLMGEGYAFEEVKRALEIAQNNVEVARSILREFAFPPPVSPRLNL

As usually defined, the DC50 is the concentration giving 50% degradation. A high value points to a less potent degrader. A word on the Dmax: it is the greatest extent of degradation seen. The compound `Cn1cnnc1[C@@H](c1cccc(-n2cc3c(C(F)(F)F)cc(CN4CCC[C@@H](OCCOCc5ccc(COCCNc6cccc7c6C(=O)N(C6CCC(=O)NC6=O)C7=O)cc5)CC4)cn3c2=O)c1)C1CCC1` (some centres unmarked) [Compound 31] had a DC50 under setting [1] of 0.03 to 0.3 µM. For the same compound, under setting [2], the greatest degradation seen (Dmax) is 50 to 70%.
`Cn1cnnc1[C@@H](c1cccc(-n2cc3c(C(F)(F)F)cc(CN4CCC[C@H](OCCOCc5ccc(COCCNc6cccc7c6C(=O)N(C6CCC(=O)NC6=O)C7=O)cc5)CC4)cn3c2=O)c1)C1CCC1` (some centres unmarked) [Compound 32] showed a DC50 under setting [1] of 0.03 to 0.3 µM. Besides, the Dmax under setting [2] fell in the range of 30 to 50%.
For `CN(CCOC1CCN(Cc2cc(C(F)(F)F)c3cn(-c4cccc([C@H](c5nncn5C)C5CCC5)c4)c(=O)n3c2)CC1)C(=O)c1ccc(N2CCN(c3cccc4c3C(=O)N(C3CCC(=O)NC3=O)C4=O)CC2)cc1` (some centres unmarked) [Compound 33], the DC50 under setting [1] is greater than 10 µM. Under setting [2], the Dmax was less than 30%.
Compound `CN(CCOC1CCN(Cc2cc(C(F)(F)F)c3cn(-c4cccc([C@H](c5nncn5C)C5CCC5)c4)c(=O)n3c2)CC1)C(=O)c1ccc(N2CCN(c3ccc4c(c3)CN([C@H]3CCC(=O)NC3=O)C4=O)CC2)cc1` [Compound 34] returned a DC50 under setting [1] of 0.03 to 0.3 µM. Under “THP-1”, the Dmax was greater than 70%.
With `CN(CCOC1CCN(Cc2cc(C(F)(F)F)c3cn(-c4cccc([C@H](c5nncn5C)C5CCC5)c4)c(=O)n3c2)CC1)C(=O)c1ccc(N2CCN(c3ccc4c(c3)CN([C@@H]3CCC(=O)NC3=O)C4=O)CC2)cc1` [Compound 35], the 50% degradation concentration (DC50) under setting [1] is 0.3 to 1 µM. Also, the maximal degradation (Dmax) under setting [2] lay in the range of 50 to 70%.
Taken in the same sequence, the figures for `Cn1cnnc1CC1(c2cccc(-n3cc4c(C(F)(F)F)cc(CN5CCC(OCCNc6cccc7c6C(=O)N(C6CCC(=O)NC6=O)C7=O)CC5)cn4c3=O)c2)COC1` (centres unmarked) [Compound 36] were 1 to 10 µM and less than 30%.
As for `Cn1cnnc1[C@@H](c1cccc(-n2cc3c(C(F)(F)F)cc(CN4CCC(OCCNc5cccc6c5C(=O)N(C5CCC(=O)NC5=O)C6=O)CC4)cn3c2=O)c1)C1CCC1` (some centres unmarked) [Compound 37], the DC50 under setting [1] lay in the range of 1 to 10 µM. The Dmax under setting [2] is less than 30%.
On to `Cn1cnnc1[C@@H](c1cccc(-n2cc3c(C(F)(F)F)cc(CN4CCC(CN5CCC(CN6CCN(c7ccc8c(c7)CN(C7CCC(=O)NC7=O)C8=O)CC6)CC5)CC4)cn3c2=O)c1)C1CCC1` (some centres unmarked) [Compound 38], for which the 50% degradation concentration (DC50) under setting [1] was 1 to 10 µM. The maximal degradation (Dmax) under setting [2] was 50 to 70%.
Turning to `Cn1cnnc1CC1(c2cccc(-n3cc4c(C(F)(F)F)cc(CN5CCC(N6CCN(c7ccc8c(c7)CN(C7CCC(=O)NC7=O)C8=O)CC6)CC5)cn4c3=O)c2)COC1` (centres unmarked) [Compound 39], the DC50 under setting [1] was greater than 10 µM. This compound yielded a maximal degradation (Dmax) (THP-1) of less than 30%.
Compound `Cn1cnnc1CC1(c2cccc(-n3cc4c(C(F)(F)F)cc(CN5CCC(CN6CCC(CN7CCN(c8ccc9c(c8)CN(C8CCC(=O)NC8=O)C9=O)CC7)CC6)CC5)cn4c3=O)c2)COC1` (centres unmarked) [Compound 42] gave a 50% degradation concentration (DC50) under setting [1] greater than 10 µM. The compound further gave a maximal degradation (Dmax) (THP-1) of less than 30%.
Taken in the same sequence, the figures for `Cn1cnnc1CC1(c2cccc(-n3cc4c(C(F)(F)F)cc(CN5CCC(C(=O)N6CCC(CN7CCN(c8ccc9c(c8)CN(C8CCC(=O)NC8=O)C9=O)CC7)CC6)CC5)cn4c3=O)c2)COC1` (centres unmarked) [Compound 43] were greater than 10 µM and less than 30%.
With `Cn1cnnc1[C@@H](c1cccc(-n2cc3c(C(F)(F)F)cc(CN4CCC(C(=O)N5CCC(CN6CCN(c7ccc8c(c7)CN(C7CCC(=O)NC7=O)C8=O)CC6)CC5)CC4)cn3c2=O)c1)C1CCC1` (some centres unmarked) [Compound 44], the half-maximal degradation concentration (DC50) under setting [1] is greater than 10 µM. Also, the greatest degradation seen (Dmax) under setting [2] fell in the range of 30 to 50%.
The like results for `Cn1cnnc1CC1(c2cccc(-n3cc4c(C(F)(F)F)cc(CN5CC[C@@H](OCCOCc6ccc(COCCNc7cccc8c7C(=O)N(C7CCC(=O)NC7=O)C8=O)cc6)C5)cn4c3=O)c2)COC1` (some centres unmarked) [Compound 45] were, in that order, 0.3 to 1 µM and 50 to 70%.
Consider `Cn1cnnc1CC1(c2cccc(-n3cc4c(C(F)(F)F)cc(CN5CC[C@H](OCCOCc6ccc(COCCNc7cccc8c7C(=O)N(C7CCC(=O)NC7=O)C8=O)cc6)C5)cn4c3=O)c2)COC1` (some centres unmarked) [Compound 46], for which the DC50 under setting [1] was greater than 10 µM. Besides, the Dmax under setting [2] lay within 30 to 50%.
The compound `Cn1cnnc1[C@@H](c1cccc(-n2cc3c(C(F)(F)F)cc(CN4CCC[C@H](OCCN5CCC(CN6CCN(c7ccc8c(c7)CN([C@@H]7CCC(=O)NC7=O)C8=O)CC6)CC5)C4)cn3c2=O)c1)C1CCC1` [Compound 55] gave a DC50 under setting [1] of 1 to 10 µM. For the same compound, the Dmax under setting [2] was 30 to 50%.
Take `Cn1cnnc1[C@@H](c1cccc(-n2cc3c(C(F)(F)F)cc(CN4CCC[C@H](OCCN5CCC(CN6CCN(c7ccc8c(c7)CN([C@H]7CCC(=O)NC7=O)C8=O)CC6)CC5)C4)cn3c2=O)c1)C1CCC1` [Compound 56]: under setting [1], the DC50 is 0.03 to 0.3 µM. Under setting [2], the Dmax is greater than 70%.
For the compound `Cn1cnnc1[C@@H](c1cccc(-n2cc3c(C(F)(F)F)cc(CN4CCC(OCCN5CCC(CN6CCN(c7ccc8c(c7)CN([C@@H]7CCC(=O)NC7=O)C8=O)CC6)CC5)CC4)cn3c2=O)c1)C1COC1` [Compound 57], the 50% degradation concentration (DC50) under setting [1] was in the range of 1 to 10 µM. The Dmax under setting [2] lay in the range of 50 to 70%.
As to `Cn1cnnc1[C@@H](c1cccc(-n2cc3c(C(F)(F)F)cc(CN4CCC(OCCN5CCC(CN6CCN(c7ccc8c(c7)CN([C@H]7CCC(=O)NC7=O)C8=O)CC6)CC5)CC4)cn3c2=O)c1)C1COC1` [Compound 58], the DC50 under setting [1] lay in the range of 0.03 to 0.3 µM. Further, under setting [2], the Dmax was greater than 70%.
The like results for `Cn1cnnc1[C@@H](c1cccc(-n2cc3c(C(F)(F)F)cc(CN4CC[C@@H](OCCOCc5ccc(COCCNc6cccc7c6C(=O)N(C6CCC(=O)NC6=O)C7=O)cc5)C4)cn3c2=O)c1)C1CCC1` (some centres unmarked) [Compound 59] were, in that order, 0.3 to 1 µM and 30 to 50%.
On to `Cn1cnnc1[C@@H](c1cccc(-n2cc3c(C(F)(F)F)cc(CN4CC[C@H](OCCOCc5ccc(COCCNc6cccc7c6C(=O)N(C6CCC(=O)NC6=O)C7=O)cc5)C4)cn3c2=O)c1)C1CCC1` (some centres unmarked) [Compound 60], for which the half-maximal degradation concentration (DC50) under setting [1] was 0.3 to 1 µM. For the same compound, under setting [2], the maximal degradation (Dmax) was 30 to 50%.
Consider `Cn1cnnc1CC1(c2cccc(-n3cc4c(C(F)(F)F)cc(CN5CCN(CCN6CCC(CN7CCN(c8ccc9c(c8)CN([C@H]8CCC(=O)NC8=O)C9=O)CC7)CC6)CC5)cn4c3=O)c2)COC1` [Compound 62], for which the DC50 under setting [1] fell in the range of 0.03 to 0.3 µM. Further, under setting [2], the Dmax was greater than 70%.
For the compound `Cn1cnnc1[C@@H](c1cccc(-n2cc3c(C(F)(F)F)cc(CN4CCN(CCN5CCC(CN6CCN(c7ccc8c(c7)CN([C@@H]7CCC(=O)NC7=O)C8=O)CC6)CC5)CC4)cn3c2=O)c1)C1CCC1` [Compound 63], the half-maximal degradation concentration (DC50) under setting [1] lay within 0.3 to 1 µM. The maximal degradation (Dmax) under setting [2] lay in the range of 30 to 50%.
The like results for `Cn1cnnc1[C@@H](c1cccc(N2Cc3c(cc(CN4CCC(OCCN5CCC(CN6CCN(c7ccc8c(c7)CN([C@@H]7CCC(=O)NC7=O)C8=O)CC6)CC5)CC4)cc3C(F)(F)F)C2=O)c1)C1CCC1` [Compound 65] were, in that order, 0.3 to 1 µM and 50 to 70%.
Under setting [1], `Cn1cnnc1[C@@H](c1cccc(N2Cc3c(cc(CN4CCC(OCCN5CCC(CN6CCN(c7ccc8c(c7)CN([C@H]7CCC(=O)NC7=O)C8=O)CC6)CC5)CC4)cc3C(F)(F)F)C2=O)c1)C1CCC1` [Compound 66] displayed a half-maximal degradation concentration (DC50) of 0.03 to 0.3 µM. Under “THP-1”, this compound gave a Dmax of 50 to 70%.
For the compound `CO[C@H]1C[C@](c2cccc(-n3cc4c(C(F)(F)F)cc(CN5CCC(OCCN6CCC(CN7CCN(c8ccc9c(c8)CN([C@@H]8CCC(=O)NC8=O)C9=O)CC7)CC6)CC5)cn4c3=O)c2)(c2nncn2C)C1` [Compound 69], the half-maximal degradation concentration (DC50) under setting [1] fell in the range of 0.3 to 1 µM. Further, under setting [2], the maximal degradation (Dmax) is 30 to 50%.

Values taken from patent publication US20250340552A1, “COMPOUNDS, COMPOSITIONS AND METHODS OF TREATING DISORDERS” (HOTSPOT THERAPEUTICS, INC., priority 2022, published 2025).
